Results as given in publication PMC3214044, “In Vitro Recombination of Non-Homologous Genes Can Result in Gene Fusions that Confer a Switching Phenotype to Cells” (PLoS ONE, 2011).

Key:
[1] = test system: T1, Ph8; settings: read-out: Km (μM) / - Maltose; 10 mM sodium phosphate pH 7.0, 37°C, without maltose; BLA domain site
T1 construct: gene malE

[2] = test system: T2, c4; settings: read-out: Km (μM) / - Maltose; 10 mM sodium phosphate pH 7.0, 37°C, without maltose; BLA domain site; substrate range 100-400 µM, above the Km
T2 construct: gene malE

Q: Which results are given for `CC1(C)S[C@@H]2[C@H](NC(=O)[C@H](N)c3ccccc3)C(=O)N2[C@H]1C(=O)O` [ampicillin]?
A: Km [1]: 730 ± 120 µM; Km [2]: 73 ± 4 µM
